Entries after “also recorded” stand apart in the source; their conditions may differ. Read-outs that look alike come from different tables or passages of the source.
Columns and labels:
[1] = test system: NIH 3T3 cells; experiment: Activation of resting serum-starved NIH 3T3 cells ([3H]thymidine incorporation); format: cell-based; conditions: for time from the start of activation to entry of the S phase: 5% fetal calf serum; for activation of growth arrested cells (thymidine incorporation over 24 hours): cells deprived of serum for 3 or 4 days; for concentrations that activate resting 3T3 cells (dose-response): four day serum-starved cells, FIG. 6B; for entry of treated cells into the S phase: data not shown
Procedure: FIGS. 6A and 6B show the activation of resting NIH 3T3 cells. In FIG. 6(a), one to four day serum-starved cells activated by serum, retinol, 14-HRR, and the peptide growth factors epidermal growth factor ("EGF") and platelet derived growth factor ("PDGF") are shown. […] NIH 3T3 cells were grown to confluence in Dulbecco's minimal essential medium ("DMEM") containing 10% fetal calf serum in 96-well microliter plates. All media were supplemented with 2 mM glutamine and 100 U/ml of penicillin/streptomycin. Cells were washed once with phosphate-buffered saline solution and incubated for one to four days in 200 μl/well of DMEM media/0.1% fetal calf serum ("starvation media"). On the indicated day, starvation media was replaced with 200 μl/well of insulin, transferrin, linoleic acid, bovine serum albumin ("ITLB") media, with or without fetal calf serum, retinoids, or peptide growth factors at the indicated concentrations. ITLB media is RPMI media (Gibco BRL, Grand Island, N.Y.) containing […] bovine serum albumin (1.2 mg/ml), linoleic acid (10^-6 M), bovine insulin (5 μg/ml), and transferrin (5 μg/ml). [^3 H]thymidine (1.2 μCi per well) was added at the beginning of the experiment, and the thymidine incorporation was determined after 24 h. The data represent the mean of triplicate measurements and standard deviations ("SD") were ≤17%. Recombinant PDGF (B/B) and EGF were purchased from Sigma Chemical Company or Boehringer Mannheim Corporation. Anhydroretinol was synthesized by acid catalyzed dehydration of all-trans-retinol. Embree, J. Biol. Chem. 128:187-98 (1939) and Derguini, et al., Angew. Chem. Int. Ed. Engl. 33:1839-41 (1994), which are hereby incorporated by reference. All-trans-14-hydroxy-4,14-retro-retinol was synthesized as described. Derguini, et al., J. Biochem. 33:623-28 (1994), which is hereby incorporated by reference.
Cells starved for 4 days in DMEM/0.1% fetal calf serum were activated with 5% fetal calf serum, 2 μM retinol, or 2 μM 14-HRR, and the cumulative thymidine incorporation was determined at the indicated time points. Δcpm corresponds to the increase in [^3 H]thymidine incorporation in the two hour period before the time point shown. This method is described in FIG. 6. The data in FIG. 7 represents the mean of quadruplicate measurements and SDs were ≤15%.
Cells starved for 4 days in DMEM/0.1% fetal calf serum were activated in 100 μl/well ITLB medium. At the indicated time points, anhydroretinol was added in 100 μl ITLB medium. This method is described in FIG. 6. The data in FIG. 8 represents the mean of quadruplicate measurements and SDs were ≤20%.
Cells starved for 4 days in DMEM/0.1% fetal calf serum were activated with 5% fetal calf serum, 2 μM retinol, or 2 μM 14-HRR. At the time points, 10^-5 M anhydroretinol was added. The cumulative [^3 H]thymidine incorporation was determined after 24 hours. […] The method is described in FIG. 6. The data in FIG. 9 represents the mean of triplicate measurements and SDs were ≤20%.
Confluent NIH 3T3 cells were starved for 1 to 4 days in medium containing 0.1% serum. Then, these starved cells were treated with serum, PDGF, EGF, retinol, or 14-HRR. Activation was quantitated by measuring the [^3 H] thymidine incorporated into newly synthesized DNA during the subsequent 24 hours (FIG. 6A). After a single day of serum starvation, the cells were not yet arrested, and the control cells incorporated the same amount of thymidine as the treated cells. After 2 days of serum deprivation, untreated cells incorporated slightly less thymidine, while cells treated with serum, peptide growth factors and retinoids maintained the original level of thymidine incorporation. In contrast, cells deprived of serum for 3 or 4 days were fully growth arrested; untreated cells incorporated little or no thymidine. […] All subsequent activation experiments were conducted using 4 day starved NIH 3T3 cells.

[2] = biological target: T1, retinol dehydratase (Spodoptera frugiperda, UniProt Q26490); experiment: Retinol dehydratase assay ([3H]-retinol to [3H]-AR, HPLC radiomatic detection); kinetic studies; format: biochemical
T1 sequence (Q26490 1-351): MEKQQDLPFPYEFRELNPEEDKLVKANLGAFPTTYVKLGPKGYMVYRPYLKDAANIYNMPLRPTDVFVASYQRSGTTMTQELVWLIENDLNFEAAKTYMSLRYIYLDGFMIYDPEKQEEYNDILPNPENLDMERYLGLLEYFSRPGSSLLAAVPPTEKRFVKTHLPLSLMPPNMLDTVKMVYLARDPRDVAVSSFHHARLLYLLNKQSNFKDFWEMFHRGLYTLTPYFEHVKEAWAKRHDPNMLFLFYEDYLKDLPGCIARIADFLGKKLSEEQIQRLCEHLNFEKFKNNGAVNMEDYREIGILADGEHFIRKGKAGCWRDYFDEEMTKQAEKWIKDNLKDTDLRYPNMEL
Procedure: 20-50 μl aliquots of supernatant/column fractions were incubated with 1 μCi of [^3 H]-retinol and 20 μl of high speed supernatant from sonicated Sf-9 cells in 200 μl assay buffer (20 mM Tris.Cl pH 7.5, 150 mM NaCl, I mM MgCI2) for 15-60 minutes at 24° C. […] Samples were delipidated and [^3 H]-AR production quantified by a liquid scintillation radiomatic detector in series with HPLC gradient elution (20 mM Tris pH 7.4/methanol/chloroform) from a C-18 Reverse Phase 201TP54 column (Vydac, Separations Group, Hesperia, Calif.) as described by McClean et al., Clin. Chem., 28:693-96 (1982) and Derguini et al., Angew. Che. Int. Ed. Engl., 33:1839-41 (1994), which are hereby incorporated by reference.
Kinetic studies were performed with native retinol dehydratase (0.1 μg/assay) and ^3 H-retinol in the presence of constant substrate carrier protein concentrations, either delipidated BSA or recombinant cellular retinol binding protein ("CRBP"). The initial rate of AR synthesis at different substrate concentrations was determined by radiomatic detection of ^3 H-AR after HPLC separation.
Carrier protein for retinol (delipidated bovine serum albumin or recombinant human CRBP) was added to reduce nonspecific binding and micelle formation.

[3] = test system: B lymphocyte; conditions: Buck et al. 1993; cited from earlier work
[4] = test system: resting T lymphocytes; conditions: Buck et al. 1993; cited from earlier work
[5] = test system: lymphocyte and HL-60 cell; conditions: Eppinger et al. 1993, Buck et al. 1993; cited from earlier work
[6] = test system: Sf-21 cells; format: cell-based, Spodoptera frugiperda
Procedure: 10^7 Spodoplera frugiperda Sf-21 cells or Sf-9 cells were incubated with 1 μCi^3 H-retinol in Grace's insect cell media for 6 hours. Delipidated and radiolabelled retinoid metabolites were analyzed by radiomatic detection after separation by HPLC.
Che. Int. Ed. Engl., 33:1839-41 (1994), which is hereby incorporated by reference.

[7] = biological target: T1, retinol dehydratase; experiment: Fluorimetric titration of recombinant retinol dehydratase with retinol (direct binding, no cofactor)
Procedure: Binding was monitored by following the fluorescence enhancement of retinol (excitation--330 nm; emission--480 nm, open circles). The fluorescence contribution of free retinol was determined by titration with retinol in the absence of protein (open squares), analyzed by linear regression analysis (dashed line) and subtracted from the titration data to give the corrected titration binding curve (closed circles). The data were fitted (solid line) using an equation derived from simple binding theory.
Retinol is an efficient fluorophore and its interactions with proteins are often accompanied by a marked increase in its fluorescence. […]
Recombinant retinol dehydratase (lμM) was titrated with retinol from a concentrated solution in ethanol (final ethanol concentration <2.0%). Binding was monitored by following the fluorescence enhancement of retinol (excitation--330 nm; emission--480 nm, open circles). The fluorescence contribution of free retinol was determined by titration with retinol in the absence of protein (FIG. 5B, open squares), analysed by linear regression analysis (FIG. 5B, dashed line) and subtracted from the titration data to give the corrected titration binding curve (FIG. 5B, closed circles). […]

[8] = biological target: BSA (Bos taurus, UniProt P02769); conditions: published value; read-out: BSA Kd for retinol; cited from earlier work
[9] = biological target: T2, CRBP-1 (Rattus norvegicus, UniProt P02696); conditions: published value; read-out: CRBP Kd for retinol; cited from earlier work
T2 sequence (P02696 1-135): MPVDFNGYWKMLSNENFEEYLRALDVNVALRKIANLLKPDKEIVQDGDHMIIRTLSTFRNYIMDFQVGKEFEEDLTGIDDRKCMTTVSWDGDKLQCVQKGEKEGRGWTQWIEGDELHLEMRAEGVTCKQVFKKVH

[10] = 4 day starved cells, 2 μM retinol or 2 μM 14-HRR

BSA, sequence (P02769 25-607): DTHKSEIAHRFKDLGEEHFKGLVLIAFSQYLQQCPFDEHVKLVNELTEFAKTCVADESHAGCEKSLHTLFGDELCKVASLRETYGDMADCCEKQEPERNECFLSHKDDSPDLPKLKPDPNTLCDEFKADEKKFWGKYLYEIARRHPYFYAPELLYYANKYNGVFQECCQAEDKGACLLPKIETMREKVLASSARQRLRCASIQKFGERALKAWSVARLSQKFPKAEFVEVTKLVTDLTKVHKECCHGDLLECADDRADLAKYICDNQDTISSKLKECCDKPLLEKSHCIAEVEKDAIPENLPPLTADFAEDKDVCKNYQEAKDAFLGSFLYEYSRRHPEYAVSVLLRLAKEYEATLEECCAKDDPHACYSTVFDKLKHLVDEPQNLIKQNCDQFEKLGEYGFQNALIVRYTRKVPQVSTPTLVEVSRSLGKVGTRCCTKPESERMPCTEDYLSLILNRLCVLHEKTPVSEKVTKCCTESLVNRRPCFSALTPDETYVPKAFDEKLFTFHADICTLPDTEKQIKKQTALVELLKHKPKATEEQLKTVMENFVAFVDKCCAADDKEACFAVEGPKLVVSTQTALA

CC1=CCCC(C)(C)C1=C/C=C(C)/C=C/C=C(\C)C(O)CO (stereo not shown) [14-HRR, 14-hydroxy-4,14-retro-retinol]
time from the start of activation to entry of the S phase [1, 10]: 16 h | activation of growth arrested cells (thymidine incorporation over 24 hours) [1]: activated the cells at least as well as serum | concentrations that activate resting 3T3 cells (dose-response) [1]: submicromolar

Nc1ncnc2c1ncn2[C@@H]1O[C@H](COP(=O)(O)OS(=O)(=O)O)[C@@H](OP(=O)(O)O)[C@H]1O [PAPS, 3'-phosphoadenosine 5'-phosphosulfate]
restoration of retinol dehydratase activity (cofactor) ([2]; purified recombinant retinol dehydratase, [3H]-retinol assay): necessary and sufficient to restore activity

Nc1ncnc2c1ncn2[C@@H]1O[C@H](COP(=O)(O)OS(=O)(=O)O)[C@@H](O)[C@H]1O [adenosine 5'-phosphosulfate]
activity as cofactor in the [3H]-retinol assay ([2]; purified recombinant retinol dehydratase, concentration range tested 1-10 μM): not active

C=C/C(C)=C/C=C/C(C)=C/C=C1/C(C)=CCCC1(C)C [anhydroretinol]
reaction rate (product inhibition) ([2]; ratio of 50:1 for anhydroretinol to retinol): halved | inhibition of activation by retinol and 14-HRR ([1]; 3T3 cells): competitively inhibits | time after activation within which added anhydroretinol prevents activation ([1]; 10^-5 M anhydroretinol, activation by 5% fetal calf serum, 2 μM retinol or 2 μM 14-HRR): ≤ 90 min | inhibition of activation by serum ([1]; 4 day starved cells, FIG. 8): blocks activation by serum in a dose-dependent manner; also recorded: competitively inhibits | block of activation when added late ([1]; anhydroretinol added after 2 hours): unable to block activation | effect on B lymphocyte proliferation [3]: blocks | effect on activation of resting T lymphocytes [4]: blocks | effect on retinol and 14-HRR supported lymphocyte and HL-60 cell growth [5]: competitively inhibits

O=CCCCC=O [glutaraldehyde]
inhibition of cellular production of AR compared to controls ([6]; 2% glutaraldehyde fixation): 90%

CCCCCCCCCCCCCC(=O)O[C@@H]1[C@@H](C)[C@@]2(O)[C@@H](C=C(CO)C[C@]3(O)C(=O)C(C)=C[C@@H]23)[C@@H]2C(C)(C)[C@]12OC(C)=O [phorbol ester]
entry of treated cells into the S phase [1]: did not enter the S phase | activation of resting cells ([1]; ≤1 μM): unable to activate

CC1=C(/C=C/C(C)=C/C=C/C(C)=C/C(=O)O)C(C)(C)CCC1 [retinoic acid]
activation of resting cells ([1]; ≤5 μM): unable to activate

CC1=C(/C=C/C(C)=C/C=C/C(C)=C/CO)C(C)(C)CCC1 [retinol]
Vmax ([2]; all assays, with carrier protein, n=5): 490±50 pmoles AR min^-1 enzyme | Vmax ([2]; native retinol dehydratase 0.1 μg/assay, 3H-retinol, representative experiment, non-linear regression): 530 pmol/mg/min | Kd ([7]; n=3, read-out: range of equilibrium dissociation constant (Kd)): 0.002 to 0.015 µM | Kd ([7]; recombinant enzyme 0.5-1 μM, no cofactor, to be considered an upper limit, read-out: equilibrium dissociation constant (Kd)): 0.009 µM | time from the start of activation to entry of the S phase [1, 10]: 16 h | activation of growth arrested cells (thymidine incorporation over 24 hours) [1]: activated the cells at least as well as serum | concentrations that activate resting 3T3 cells (dose-response) [1]: submicromolar | Kd [8]: 1 µM | Kd [9]: 0.012 µM

[N-]=[N+]=[N-] [sodium azide]
inhibition of cellular production of AR compared to controls ([6]; 0.1% sodium azide treatment): 96%

Insulin: bovine insulin, 5 μg/ml in ITLB medium
activation of resting 3T3 cells ([1]; insulin 5 μg/ml in the defined medium, alone): did not activate

PDGF
activation of growth arrested cells (thymidine incorporation over 24 hours) [1]: had no effect | entry of treated cells into the S phase [1]: did not enter the S phase | activation of resting cells ([1]; ≤1000 ng/ml): unable to activate
